This note sets out measurements from ChEMBL document CHEMBL1201862, “PubChem BioAssay data set” (2004).

Test systems include KM12; UO-31; HCT-15; NCI-H460; EKVX; HOP-92; SF-295; HT-29; IGROV-1; LOX IMVI; SF-539; ACHN; RPMI-8226; K562; SNB-19; OVCAR-5.
Assay in all cases: DTP human tumour cell line panel, 48 h

The structures appear in SMILES notation.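 Grown in 96-well plates, cells were treated for 48 hours with each compound at five concentrations. Insufficient inhibition: endpoint recorded as highest concentration tested. GI50 = concentration required for 50% inhibition of growth.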 The source made the active and inactive calls. Cut-off read from the data, not from the text of the source: active = GI50 up to about 1.1 µM and inactive = higher.

`COC1=CC(=C(C#N)/C(=N\c2ccccc2)SC)C=C(OC)C1=O`: the GI50 was 63.2 µM (inactive) with KM12; 36.5 µM (inactive) with UO-31; 80.7 µM in the assay on HCT-15; 70.6 µM (inactive) with NCI-H460; > 100 µM (inactive) in the assay with EKVX; 3.84 µM (inactive) in the assay on HOP-92. The GI50 in the assay with SF-295 is 69.2 µM (inactive); in the assay with HT-29 it was > 100 µM (inactive); with IGROV-1, 86.1 µM (inactive); in the assay with LOX IMVI, 39.5 µM (inactive); in the assay on SF-539, > 100 µM (inactive); in the assay on ACHN, 40.8 µM (inactive). Besides, the figures for the GI50 in the assay with RPMI-8226 and in the assay on K562 were 18.8 µM (inactive) and 22.6 µM (inactive), respectively.

In the case of `CC(C)(C)c1cc(CCC(=O)Nc2ccc(Cl)cc2)nc(S)n1`, the GI50 in the assay with KM12 was > 100 µM (inactive); in the assay with UO-31 it was > 100 µM (inactive); in the assay on HCT-15, greater than 100 µM; in the assay on NCI-H460, > 100 µM (inactive); in the assay on SNB-19, > 100 µM (inactive); in the assay on OVCAR-5, > 100 µM (inactive). Further, the GI50 with EKVX, in the assay on SF-295, in the assay on HT-29, in the assay on IGROV-1, in the assay with LOX IMVI and with SF-539 was > 100 µM (inactive) each time. Besides, the GI50 with ACHN, with RPMI-8226 and with K562 was > 100 µM (inactive) in each case.

`COP1(=O)CC2C(Cl)(Cl)C2(C)C1` (stereo not drawn): the GI50 in the assay with KM12, in the assay on NCI-H460, with SNB-19, with SF-295, with HT-29 and in the assay on IGROV-1 was > 100 µM (inactive) in each case. Further, the GI50 with LOX IMVI, with SF-539, in the assay on RPMI-8226 and in the assay with K562 was > 100 µM (inactive) in each case.

With `O/N=C1/CCCC/C1=C\c1ccc(Cl)c(Cl)c1`, the GI50 is 20.8 µM (inactive) with UO-31; 28.4 µM in the assay with HCT-15; 23.9 µM (inactive) in the assay on NCI-H460; 27.9 µM (inactive) in the assay with SNB-19; 23.9 µM (inactive) in the assay with EKVX; 40.5 µM (inactive) in the assay on SF-295. Besides, the GI50 is 18.8 µM (inactive) in the assay with HT-29; 38 µM (inactive) in the assay with IGROV-1; 21 µM (inactive) in the assay with LOX IMVI; 19 µM (inactive) in the assay with SF-539; 28.7 µM (inactive) in the assay on ACHN; 27.8 µM (inactive) in the assay with K562.

As to `CCCCCCCCCCCCCCCCCC(=O)NCCCNCCCNC(=O)CCCCCCCCCCCCCCCCC`, the GI50 in the assay on UO-31 was > 100 µM (inactive); in the assay with HCT-15, greater than 100 µM; in the assay on NCI-H460 it was > 100 µM (inactive); in the assay with SNB-19 it was > 100 µM (inactive); in the assay with OVCAR-5 it was > 100 µM (inactive); in the assay on HOP-92, > 100 µM (inactive). Moreover, the GI50 in the assay with SF-295, in the assay with HT-29, in the assay with IGROV-1, in the assay on LOX IMVI, in the assay on ACHN and in the assay on RPMI-8226 was > 100 µM (inactive) each time. In addition, the GI50 with K562 is > 100 µM (inactive).

As for `Clc1ccccc1C1=NN(c2ccccc2)C2c3ccccc3OCC12` (stereo not drawn), the GI50 in the assay on KM12, in the assay on UO-31, with NCI-H460, with SNB-19, in the assay on OVCAR-5 and with EKVX was > 100 µM (inactive) throughout. Further, the GI50 is 39.6 µM (inactive) in the assay with HOP-92; 79.6 µM (inactive) in the assay on SF-295; 58.5 µM (inactive) in the assay with HT-29; > 100 µM (inactive) in the assay on IGROV-1; 88.1 µM (inactive) with LOX IMVI; > 100 µM (inactive) in the assay with ACHN. The GI50 in the assay with RPMI-8226 was 34.1 µM (inactive); in the assay on K562, 44.3 µM (inactive).

A word on the GI50: it is the concentration at which growth is held to half of that of the control.
